# Assay: RP, Waters CORTECS UPLC C18, 100 × 2.1 mm, 1.6 µm, 40 °C, 0.4 mL/min, estimated dead time 0.55 min; A: water + 0.1% formic acid, pH 3; B: acetonitrile + 0.1% formic acid, pH 3; gradient (min/%B) 0/5 1.12/5 6.41/99.5 10.01/99.5
# Settings: stereoisomer not certain
row,Structure (SMILES),LC retention time [min]
1,OC(c1ccc(Cl)cc1)(c1cncnc1)c1ccccc1Cl (centres undefined) [Fenarimol],4.86
2,CCOC(=O)CC(SP(=O)(OC)OC)C(=O)OCC (centres undefined) [Malaoxon],4.05
3,CC=C(C)C(=O)NCC(=O)O [Tiglyl Glycine],2.22
4,O=Cc1c[nH]c2ccccc12 [Indole-3-carboxaldehyde],3.28
5,CCC1CCCC(OC2CCC(N(C)C)C(C)O2)C(C)C(=O)C2=CC3C(C=CC4CC(OC5OC(C)C(OC)C(OC)C5OC)CC43)C2CC(=O)O1 (centres undefined) [Spinosad A & D],4.76
6,O=C(NC(=O)c1c(F)cccc1F)Nc1cc(Cl)c(F)c(Cl)c1F [Teflubenzuron],5.7
7,CC(=O)OCC(=O)C1(O)CCC2C3CCC4=CC(=O)CCC4(C)C3C(O)CC21C (centres undefined) [CORTISOL 21-ACETATE],4.25
8,CCCCC[n+]1cccc(S(=O)(=O)[O-])c1 [C5-APS],2.31
9,CC(CCC(=O)O)C1CCC2C3C(O)CC4CC(O)CCC4(C)C3CCC12C (centres undefined) [Chenodeoxycholic acid],5.12
10,CC(C)(C)N(NC(=O)c1ccc(Cl)cc1)C(=O)c1ccccc1 [Halofenozide],4.84
11,COc1cccc(C(=O)NN(C(=O)c2cc(C)cc(C)c2)C(C)(C)C)c1C [Methoxyfenozide],5.09
12,CC1=NNC(=O)N(N=Cc2cccnc2)C1 [Pymetrozin],1.02
13,Cc1cc(C2CC2)nc(Nc2ccccc2)n1 [Cyprodinil],4.68
14,CNC(=N[N+](=O)[O-])NCC1CCOC1 (centres undefined) [Dinotefuran],2.2
15,COc1nc(C)nc(NC(=O)NS(=O)(=O)c2ccccc2Cl)n1 [Chlorsulfurson],4.12
16,CN(C)C(=O)Nc1ccc(Oc2ccc(Cl)cc2)cc1 [Chloroxuron],4.84
17,C=CCOC(Cn1ccnc1)c1ccc(Cl)cc1Cl (centres undefined) [Imazalil],3.88

row,Structure (SMILES),LC retention time [min]
1,CSc1nnc(C(C)(C)C)c(=O)n1N [Metribuzin],3.98
2,CC(C)N1C(=O)N(c2ccccc2)CSC1=NC(C)(C)C [Buprofezin],5.45
3,O=C(O)Cc1c[nH]c2ccccc12 [3-Indoleacetic acid],3.4
4,CCCC(Cn1cncn1)c1ccc(Cl)cc1Cl (centres undefined) [Penconazole],5.19
5,CON=C(C1=NOCCO1)c1ccccc1Oc1ncnc(Oc2ccccc2Cl)c1F [Fluoxastrobin],5.22
6,CN1COCN(Cc2cnc(Cl)s2)C1=N[N+](=O)[O-] [Thiametoxam],2.87
7,CCN(CC)C(=O)C(Cl)=C(C)OP(=O)(OC)OC (mixture of isomers) [Phospamidon (Mix of isomers)],3.69
8,CC1COC(Cn2cncn2)(c2ccc(Oc3ccc(Cl)cc3)cc2Cl)O1 (centres undefined) [Difenoconazole],5.46
9,CCCN(CC)CC1COC2(CCC(C(C)(C)C)CC2)O1 (centres undefined) [Spiroxamine],4.29
10,CC(CCC(=O)NCCS(=O)(=O)O)C1CCC2C3CCC4CC(O)CCC4(C)C3CC(O)C12C (centres undefined) [Taurodeoxycholic acid],4.16
11,C[S+](CCC(N)C(=O)[O-])CC1OC(n2cnc3c(N)ncnc32)C(O)C1O (centres undefined) [S-ADENOSYLMETHIONINE],5.56
12,CCOP(=S)(OCC)SCSP(=S)(OCC)OCC [Ethion],6.19
13,O=C(O)c1ccc2ccccc2n1 [2-QUINOLINECARBOXYLATE],2.4
14,CCN(CC)c1nc(C)cc(OP(=S)(OC)OC)n1 [Pirimiphos-methyl],5.67
15,COCCN(C(=O)CCl)c1c(C)cccc1C [Dimethachlor],4.55
16,Cc1nnc(-c2ccccc2)c(=O)n1N [Metamitron],3.09
17,COC=C(C(=O)OC)c1ccccc1COc1cccc(C(F)(F)F)n1 [Picoxystrobin],5.45

# From the RepoRT retention time repository
